From patent US4470974A, “Gastric cytoprotection with L-363,586” (Merck & Co., Inc., priority 1983, dated 1984)
Like-named read-outs stand apart in the source and are kept apart here.

Tests used:
[1] = system: Sprague-Dawley (S.D.) rats; assay type: in vivo, rat; settings: for Gastric Lesions % Inhibition / Gastric Lesions Mean Score + SEM: 60 minutes after ethanol
Protocol: Twenty-four hr. fasted Sprague-Dawley (S.D.) rats were perorally (p.o.) dosed with 1.0 ml absolute ethanol. […] One hour later, the animals were sacrificed and stomach mucosae were examined for resulting lesions.

S.D. rat = assay type: in vivo; settings: for dose at which significant ulcer reduction was observed: administered simultaneously with indomethacin; for Gastric Ulcers % Inhibition / Gastric Ulcers Mean Score + SEM (number of ulcers): 4 hours after indomethacin
Protocol: Indomethacin, 20 mg/kg p.o., was used to induce ulcers in the 24 hr. fasted S.D. rat. […]
The number of ulcers for twenty-six (i.p.) and fifteen (p.o.) aqueous vehicle-dosed control animals in the indomethacin ulcer assay were so close, (23.0±2.2 S.E.M. i.p.; 18.1±1.6 S.E.M. p.o.), that the data from each experimental dosage group were pooled for group statistical analysis by way of Student's "t" test. FIG. 1 indicates the number of ulcers resulting from indomethacin at 20 mg/kg p.o., when either 0.5% (wt.) aqueous methylcellulose vehicle or L-363,586 was co-administered. The bold-faced numbers at the bottom of each column represent the number of rats used for each value, while the dose, in mg/kg, is noted at the top of each column. […] Higher i.p. doses, from 0.0016 to 0.1 mg/kg, thereafter, inhibited ulcer formation by 80% to 94%.

[2] = 0.22 mg/kg p.o. coadministered with 1.0 ml 100% ethanol
[3] = 0.44 mg/kg p.o. coadministered with 1.0 ml 100% ethanol
[4] = 1.0 mg/kg p.o. coadministered with 1.0 ml 100% ethanol
[5] = 2.2 mg/kg p.o. coadministered with 1.0 ml 100% ethanol
[6] = 4.4 mg/kg p.o. coadministered with 1.0 ml 100% ethanol
[7] = 0.01 mg/kg p.o. simultaneously with indomethacin 20 mg/kg p.o.
[8] = 0.1 mg/kg p.o. simultaneously with indomethacin 20 mg/kg p.o.
[9] = 1.0 mg/kg p.o. simultaneously with indomethacin 20 mg/kg p.o.
[10] = 0.0001 mg/kg i.p. immediately following 20 mg/kg p.o. indomethacin
[11] = 0.001 mg/kg i.p. immediately following 20 mg/kg p.o. indomethacin
[12] = 0.01 mg/kg i.p. immediately following 20 mg/kg p.o. indomethacin
[13] = 0.1 mg/kg i.p. immediately following 20 mg/kg p.o. indomethacin

Structure (SMILES): CC(C)[C@@H]1NC(=O)[C@H](CCCCN)NC(=O)[C@@H](Cc2c[nH]c3ccccc23)NC(=O)[C@H](Cc2ccc(O)cc2)NC(=O)[C@H](C)N(C)C(=O)[C@H](Cc2ccccc2)NC1=O [L-363,586, cyclo-(N-methyl-Ala-Tyr-d-Trp-Lys-Val-Phe)]
- Gastric Lesions % Inhibition [1, 2]: 8.0%
- Gastric Lesions Mean Score + SEM [1, 2]: 2.3 ± 0.3
- Gastric Lesions % Inhibition [1, 3]: 28.0%
- Gastric Lesions Mean Score + SEM [1, 3]: 1.8 ± 0.4
- Gastric Lesions % Inhibition [1, 4]: 28.0%
- Gastric Lesions Mean Score + SEM [1, 4]: 1.8 ± 0.3
- Gastric Lesions % Inhibition [1, 5]: 40.0%
- Gastric Lesions Mean Score + SEM [1, 5]: 1.5 ± 0.4
- Gastric Lesions % Inhibition [1, 6]: 60.0%
- Gastric Lesions Mean Score + SEM [1, 6]: 1.0 ± 0.3
- prophylactic effect on ethanol-induced lesions ([1]; 0.037 to 3.0 mg/kg p.o. fifteen min. prior to 1.0 ml absolute ethanol, examined one hour later): No prophylactic effect
- dose significantly effective in protecting against ethanol-induced lesions ([1]; p.o. simultaneously with 100% ethanol, lowest such dose): 0.44 mg/kg
- reduction of the number of ulcers (S.D. rat; 0.00001 mg/kg (10 nanograms/kg) i.p. immediately following indomethacin 20 mg/kg p.o.): 58.3%
- % Inhibition of Gastric Ulcers (S.D. rat; [7]): -2.8%
- Number of Gastric Ulcers M + S.E.M. (S.D. rat; [7]): 18.6 ± 4.4
- % Inhibition of Gastric Ulcers (S.D. rat; [8]): 50.3%
- Number of Gastric Ulcers M + S.E.M. (S.D. rat; [8]): 9.0 ± 1.9
- % Inhibition of Gastric Ulcers (S.D. rat; [9]): 83.4%
- Number of Gastric Ulcers M + S.E.M. (S.D. rat; [9]): 3.0 ± 1.3
- reduction in gastric mucosal ulcers (S.D. rat; administered either p.o. or i.p.): dose-dependent reduction
- dose at which significant ulcer reduction was observed (S.D. rat; i.p.): 10 nanograms per kilogram
- further reduction of damage with increasing dose (S.D. rat; increasing log-dose amounts from 0.00001 to 0.001 mg/kg i.p., indomethacin 20 mg/kg p.o.): did not effectively reduce the damage any further
- dose at which significant ulcer reduction was observed (S.D. rat; p.o.): 0.1 mg/kg

Structure (SMILES): C[C@H](N)C(=O)NCC(=O)N[C@H]1CSSC[C@@H](C(=O)O)NC(=O)[C@H](CO)NC(=O)[C@H]([C@@H](C)O)NC(=O)[C@H](Cc2ccccc2)NC(=O)[C@H]([C@@H](C)O)NC(=O)[C@H](CCCCN)NC(=O)[C@H](Cc2c[nH]c3ccccc23)NC(=O)[C@H](Cc2ccccc2)NC(=O)[C@H](Cc2ccccc2)NC(=O)[C@H](CC(N)=O)NC(=O)[C@H](CCCCN)NC1=O [somatostatin, reference compound]
- Gastric Ulcers % Inhibition (S.D. rat; [10]): -9.3%
- Gastric Ulcers Mean Score + SEM (number of ulcers) (S.D. rat; [10]): 22.4 ± 3.8
- Gastric Ulcers % Inhibition (S.D. rat; [11]): 2.4%
- Gastric Ulcers Mean Score + SEM (number of ulcers) (S.D. rat; [11]): 21.0 ± 2.4
- Gastric Ulcers % Inhibition (S.D. rat; [12]): 16.1%
- Gastric Ulcers Mean Score + SEM (number of ulcers) (S.D. rat; [12]): 17.2 ± 2.3
- Gastric Ulcers % Inhibition (S.D. rat; [13]): 5.9%
- Gastric Ulcers Mean Score + SEM (number of ulcers) (S.D. rat; [13]): 19.3 ± 3.3
- Gastric Ulcers Mean Score + SEM (number of ulcers) (S.D. rat; 0.5 mg/kg i.p. immediately following 20 mg/kg p.o. indomethacin): 7.7 ± 3.6
- Gastric Ulcers Mean Score + SEM (number of ulcers) (S.D. rat; 1.0 mg/kg i.p. immediately following 20 mg/kg p.o. indomethacin): 11.0 ± 3.0
- effectiveness in the peroral (p.o.) indomethacin-induced ulcer assay (S.D. rat; doses up to 0.1 mg/kg i.p.): not effective
